The assay deals with LG0567-F671-PDC KRAS tumor spheroid viability. In words: Anticancer human tumor LG0567-F671-PDC patient-derived lung adenocarcinoma cell line growth inhibition [KRAS2]. The conditions noted are these: spheroids with HUVEC and MSC; for viability, T/C: stronger effect = lower value. The method, boiled down:
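KRAS-mutant tumor cells were grown as spheroids with HUVEC endothelial cells and human MSCs as stroma. Targeted agents were tested alone and with KRAS pathway inhibitors. Doses started at or near clinical Cmax, or 10 microM, descending half-log.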

[1] abbreviates: curve of first compound, second compound 0.1 µM.
The mark [2] stands for this setting: curve of first compound, second compound 0.316 µM.
Where [3] appears, read: curve of first compound, second compound 1 µM.
[4] abbreviates: curve of first compound, second compound 3.16 µM.
Where [5] appears, read: curve of first compound, second compound 10 µM.
[6] abbreviates: second compound 0.1 µM, first compound 0.00316 µM.
[7] abbreviates: second compound 0.1 µM, first compound 0.01 µM.
The mark [8] stands for this setting: second compound 0.1 µM, first compound 0.0316 µM.
The mark [9] stands for this setting: second compound 0.1 µM, first compound 0.1 µM.
The mark [10] stands for this setting: second compound 0.1 µM, first compound 0.316 µM.
Where [11] appears, read: second compound 0.1 µM, first compound 1 µM.
The mark [12] stands for this setting: second compound 0.316 µM, first compound 0.00316 µM.
Where [13] appears, read: second compound 0.316 µM, first compound 0.01 µM.
Setting [14] is: second compound 0.316 µM, first compound 0.0316 µM.
Where [15] appears, read: second compound 0.316 µM, first compound 0.1 µM.
The mark [16] stands for this setting: second compound 0.316 µM, first compound 0.316 µM.
Where [17] appears, read: second compound 0.316 µM, first compound 1 µM.
Setting [18] is: second compound 1 µM, first compound 0.00316 µM.
Setting [19] is: second compound 1 µM, first compound 0.01 µM.
Where [20] appears, read: second compound 1 µM, first compound 0.0316 µM.
Setting [21] is: second compound 3.16 µM, first compound 0.00316 µM.
The mark [22] stands for this setting: second compound 3.16 µM, first compound 0.01 µM.
Where [23] appears, read: second compound 3.16 µM, first compound 0.0316 µM.
Setting [24] is: second compound 3.16 µM, first compound 0.1 µM.
The mark [25] stands for this setting: second compound 3.16 µM, first compound 0.316 µM.
[26] abbreviates: second compound 3.16 µM, first compound 1 µM.
Where [27] appears, read: second compound 10 µM, first compound 0.00316 µM.
Where [28] appears, read: second compound 10 µM, first compound 0.01 µM.
Where [29] appears, read: second compound 10 µM, first compound 0.0316 µM.
Where [30] appears, read: second compound 10 µM, first compound 0.1 µM.
Setting [31] is: second compound 10 µM, first compound 0.316 µM.
[32] abbreviates: second compound 10 µM, first compound 1 µM.

Bounds are passed on as bounds.
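Also: drug exposure lasted seven days after spheroids formed for three days.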
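For viability, T/C in this document: 100% = DMSO vehicle control viability.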

Broadly, the IC50 is the concentration at which inhibition is half-maximal. By viability, T/C is commonly meant the result in the treated group divided by that in the control group, in per cent. `CCN1CCN(Cc2ccc(Nc3ncc(F)c(-c4cc(F)c5nc(C)n(C(C)C)c5c4)n3)nc2)CC1` + CC1OCC2(CCN(c3cnc(Sc4ccnc(N)c4Cl)c(N)n3)CC2)C1N: the IC50 runs as follows: under setting [1], 6.46 nM; under setting [2], below 3.16 nM; under setting [3], below 3.16 nM; under setting [4], below 3.16 nM; under setting [5], below 3.16 nM. Besides, the viability, T/C is, setting by setting: under setting [6], 54.8%; under setting [7], 48.2%; under setting [8], 41.1%; under setting [9], 41.2%; under setting [10], 39.9%; under setting [11], 39.1%. The viability, T/C by setting is: under setting [12], 35.5%; under setting [13], 30.2%; under setting [14], 27.7%; under setting [15], 25.5%; under setting [16], 23%; under setting [17], 24.2%. Besides, the viability, T/C was 26% under setting [18]; 23.1% under setting [19]; 20.7% under setting [20]; 17.7% (second compound 1 µM, first compound 0.1 µM); 16.5% (second compound 1 µM, first compound 0.316 µM); 20.5% (second compound 1 µM, first compound 1 µM). For the same molecule, the viability, T/C runs as follows: under setting [21], 15.2%; under setting [22], 16.7%; under setting [23], 16.1%; under setting [24], 10.6%; under setting [25], 10.9%; under setting [26], 14.9%. Besides, the viability, T/C was 10.4% under setting [27]; 7.73% under setting [28]; 6.15% under setting [29]; 6.13% under setting [30]; 7.13% under setting [31]; 15.3% under setting [32].
As for `COc1cc2nccc(Oc3ccc(NC(=O)C4(C(=O)Nc5ccc(F)cc5)CC4)cc3)c2cc1OC`, the viability, T/C reads like this: (compound 0.0316 µM) 92% [middle of 5 runs]; (compound 0.1 µM) 78.3% [middle of 5 runs]; (compound 0.316 µM) 75.1% [middle of 5 runs]; (compound 1 µM) 67% [middle of 5 runs]. Besides, where the note is “curve of compound”, the IC50 was above 10000 nM.
As for `CC(=O)OC12COC1CC(O)C1(C)C(=O)C(O)C3=C(C)C(OC(=O)C(O)C(NC(=O)OC(C)(C)C)c4ccccc4)CC(O)(C(OC(=O)c4ccccc4)C21)C3(C)C` (centres undefined) + CC1OCC2(CCN(c3cnc(Sc4ccnc(N)c4Cl)c(N)n3)CC2)C1N, the IC50 runs as follows: under setting [1], below 10 nM; under setting [2], below 10 nM; under setting [4], below 10 nM; under setting [5], below 10 nM. Further, the viability, T/C is, setting by setting: under setting [7], 41.6%; under setting [8], 39.4%; under setting [9], 38.7%; under setting [10], 40.4%; under setting [11], 48%; (second compound 0.1 µM, first compound 3.16 µM) 38.6%. Also, the viability, T/C is 26.7% under setting [13]; 26.7% under setting [14]; 24.9% under setting [15]; 22.1% under setting [16]; 28.1% under setting [17]; 20.6% (second compound 0.316 µM, first compound 3.16 µM). In addition, the viability, T/C reads like this: under setting [22], 14.7%; under setting [23], 12.3%; under setting [24], 10.3%; under setting [25], 10.6%; under setting [26], 11.9%; (second compound 3.16 µM, first compound 3.16 µM) 10.3%. In addition, the viability, T/C under setting [28] is 14.9%; the viability, T/C under setting [29] was 9.36%; the viability, T/C under setting [30] was 11.2%; the viability, T/C under setting [31] was 9.93%; the viability, T/C under setting [32] is 12.9%; the viability, T/C (second compound 10 µM, first compound 3.16 µM) was 9.85%.
On to `CC(=O)Nc1cccc(-n2c(=O)n(C3CC3)c(=O)c3c(Nc4ccc(I)cc4F)n(C)c(=O)c(C)c32)c1` + CC1OCC2(CCN(c3cnc(Sc4ccnc(N)c4Cl)c(N)n3)CC2)C1N, for which the IC50 is below 0.1 nM under setting [1]; below 0.1 nM under setting [2]; below 0.1 nM under setting [3]; below 0.1 nM under setting [4]; below 0.1 nM under setting [5]. Also, the viability, T/C (second compound 0.1 µM, first compound 0.0001 µM) is 53.7%; the viability, T/C (second compound 0.1 µM, first compound 0.000316 µM) was 44.6%; the viability, T/C (second compound 0.1 µM, first compound 0.001 µM) is 49.4%; the viability, T/C under setting [6] is 44.7%; the viability, T/C under setting [7] was 22.7%; the viability, T/C under setting [8] is 7.91%. Further, the viability, T/C is 37.1% (second compound 0.316 µM, first compound 0.0001 µM); 31.2% (second compound 0.316 µM, first compound 0.000316 µM); 25.6% (second compound 0.316 µM, first compound 0.001 µM); 21.9% under setting [12]; 14.9% under setting [13]; 7.83% under setting [14]. Also, the viability, T/C by setting is: (second compound 1 µM, first compound 0.0001 µM) 22.4%; (second compound 1 µM, first compound 0.000316 µM) 21.8%; (second compound 1 µM, first compound 0.001 µM) 17.6%; under setting [18], 8.6%; under setting [19], 6.42%; under setting [20], 3.01%. The viability, T/C is 14.7% (second compound 3.16 µM, first compound 0.0001 µM); 8.03% (second compound 3.16 µM, first compound 0.000316 µM); 2.89% (second compound 3.16 µM, first compound 0.001 µM); 1.92% under setting [21]; 1.41% under setting [22]; 3.95% under setting [23]. In addition, the viability, T/C runs as follows: (second compound 10 µM, first compound 0.0001 µM) 5.94%; (second compound 10 µM, first compound 0.000316 µM) 2.29%; (second compound 10 µM, first compound 0.001 µM) 2.96%; under setting [27], 1.63%; under setting [28], 1.31%; under setting [29], 2.49%.
For the molecule `CN(C)C/C=C/C(=O)Nc1cc2c(Nc3ccc(F)c(Cl)c3)ncnc2cc1O[C@H]1CCOC1`, the viability, T/C reads like this: (compound 0.000316 µM) 100% [middle of 5 runs]; (compound 0.001 µM) 90.1% [middle of 5 runs]; (compound 0.01 µM) 72.6% [middle of 5 runs]; (compound 0.0316 µM) 60.4% [middle of 5 runs]; (compound 0.1 µM) 60.7% [middle of 5 runs]. Moreover, the IC50 (curve of compound) is above 100 nM.

The record behind these values is PubChem BioAssay AID1963856 (Molecular Pharmacology Branch, DTP, NCI, 2024).
